Experimental data reported in PubChem BioAssay (NCI).
Values joined by “and” are separate entries in the source; they are usually repeats but may differ in a detail not shown here. Identical values can stand only once.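 Test compounds were applied to cells in 96-well plates for 48 hours at 5 doses. GI50: concentration for 50% inhibition of growth. At the TGI there is no net growth.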

Test system: OVCAR-3 ovarian
Assay: NCI anticancer screen, dose series, 48 h

Structure (SMILES)	TGI	GI50
O=C(O)CCSC(=O)Nc1cccc(F)c1	> 100 µM	
O=C(CCl)N1c2ccccc2Oc2ccc3ccccc3c21	2.64 µM	1.23 µM
CCNC1C2(CCCCC2)NC(=O)C12CCCCC2 (centres undefined)	> 100 µM	

Test system: HCT-15 colon
Assay: NCI anticancer screen, dose series, 48 h

Structure (SMILES)	GI50	TGI
NC(CSC(c1ccccc1)(c1ccccc1)c1ccc2c(c1)OCO2)C(=O)O (centres undefined)	1.15 µM	> 81 µM
C=CCc1cc(OC)c2c(c1)C(O)CC(c1ccc(OC)c(OC)c1)O2 (centres undefined)		> 100 µM
O=C(NCCNc1nccc(-c2c(-c3cccc(O)c3)nc3sccn23)n1)c1ccccc1O	4.53 µM	> 46.8 µM
CCCCCCCC(=O)SCC/C=C/[C@@H]1CC(=O)NCc2cccc(n2)C2=N[C@@](C)(CS2)C(=O)N[C@@H](C(C)C)C(=O)N1	14.3 µM	> 33.3 µM
C[C@@H](CS(C)(=O)=O)Nc1ncc2cc(Oc3ccc(F)cc3F)c(=O)n(C)c2n1	> 25 µM	> 25 µM
CC(C)=CCCc1c(C)ccc2c1C(=O)C(=O)C(C(C)C)=C2		7.14 µM
COC(=O)[C@@H](C)C[C@H](Cc1ccc(F)cc1)NC(=O)c1csc([C@@H](C[C@H](C(C)C)N(C)C(=O)[C@@H](NC(=O)[C@H]2CCCCN2C)C(C)C)OC(C)=O)n1		> 16.7 µM
N#CC(C#N)=c1ccc(=C2NCC3CCCN23)cc1 (centres undefined)		> 100 µM
Cc1cnc(NC(=O)C(Cc2ccccc2)NC(=O)c2ccccc2)s1 (centres undefined)	2.63 µM	8.9 µM
CCOC(=O)COc1cccc2c1C(=O)CCO2		> 100 µM
CSc1ccc(/C=C2\CN(C)C/C(=C\c3ccc(SC)cc3)C2=O)cc1		> 100 µM
O=[N+]([O-])c1cnc(Sc2ccncn2)s1	1.75 µM	3.44 µM
COC(=O)[C@@]12C3=NO[C@]1(C(=O)OC)C(O[Si](C)(C)C(C)(C)C)[C@H]1OC(C)(C)O[C@H]1[C@@H]2C(OCc1ccccc1)CC3 (some centres undefined)		> 100 µM
O=C(O)c1cc(C(=O)O)cc(N2C(=O)c3ccccc3C2=O)c1		> 100 µM
COc1c2ccoc2c(/C=C/C=O)c2oc(-c3ccccc3)cc(=O)c12	2.52 µM	9.06 µM
CN(CC(=O)O)S(=O)(=O)c1ccc2ccccc2c1		> 100 µM

Structure (SMILES)	GI50	TGI
CCN(CC)CC(C(=O)Nc1c(C)cccc1C)/C(C)=N\NC(=O)C[N+](C)(C)C (centres undefined)		> 100 µM
CC(=O)OC(C)C(=O)C1c2cccc(O)c2C(=O)c2c(O)cc(C)cc21 (centres undefined)		1.55 µM
COc1ccc2c(c1)C1(C=N2)CCN(C(C)=O)CC1		> 100 µM
O=C1NC2(CCCCC2)C2CCCCC(O)C12 (centres undefined)		> 100 µM
COc1ccc(-n2/c(=N/C(=S)N(C)C)ss/c2=N\C(=S)N(C)C)cc1		> 100 µM
CC1=C(C(=O)Nc2ccc(F)c(Cl)c2)C(c2ccc(Cl)cc2)NC(=O)N1 (centres undefined)	19.5 µM	41.1 µM
Oc1ccc(Cl)cc1-c1cc(-c2ccccc2Cl)[nH]n1	0.488 µM	> 100 µM
CCOC(=O)C(Sc1ccccc1)c1c(OC)cc(=O)oc1/C=[N+](/[O-])c1ccc(N(C)C)cc1 (centres undefined)		31.8 µM
O=C(O)C(Cc1ccccc1)N1C(=O)N/C(=C\c2ccc(F)cc2)C1=O (centres undefined)		> 100 µM
COc1ccccc1NC(=O)CC(=O)n1nc(C)c(N=Nc2ccccc2C(=O)O)c1C		> 100 µM
CC(=O)N1[C@H](C(=O)O)CS[C@H]1c1ccncc1		> 100 µM
CC(=O)OC1COC(n2c(=S)n(-c3ccc(C)cc3)c(=O)c3ccccc32)C(OC(C)=O)C1OC(C)=O (centres undefined)		> 100 µM
CC(=O)[O][Hg][c]1c(N)c(C)cc(C)c1F	1.01 µM	2.55 µM
CSc1ccccc1C#C/C=C\C#Cc1ccccc1N1CCCC1=O		> 50 µM
O=C(O)CCSC(=O)Nc1cccc(F)c1		> 100 µM
CCNC1C2(CCCCC2)NC(=O)C12CCCCC2 (centres undefined)		> 100 µM

Test system: NCI-H23 lung
Assay: NCI anticancer screen, dose series, 48 h

Structure (SMILES)	GI50	TGI
NC(CSC(c1ccccc1)(c1ccccc1)c1ccc2c(c1)OCO2)C(=O)O (centres undefined)	0.545 µM	32 µM
C=CCc1cc(OC)c2c(c1)C(O)CC(c1ccc(OC)c(OC)c1)O2 (centres undefined)		> 100 µM
O=C(NCCNc1nccc(-c2c(-c3cccc(O)c3)nc3sccn23)n1)c1ccccc1O	4.51 µM	36.8 µM
CCCCCCCC(=O)SCC/C=C/[C@@H]1CC(=O)NCc2cccc(n2)C2=N[C@@](C)(CS2)C(=O)N[C@@H](C(C)C)C(=O)N1	2.1 µM	> 33.3 µM
C[C@@H](CS(C)(=O)=O)Nc1ncc2cc(Oc3ccc(F)cc3F)c(=O)n(C)c2n1	> 25 µM	> 25 µM
CC(C)=CCCc1c(C)ccc2c1C(=O)C(=O)C(C(C)C)=C2		8.52 µM
COC(=O)[C@@H](C)C[C@H](Cc1ccc(F)cc1)NC(=O)c1csc([C@@H](C[C@H](C(C)C)N(C)C(=O)[C@@H](NC(=O)[C@H]2CCCCN2C)C(C)C)OC(C)=O)n1	0.00355 µM and 0.0134 µM	> 16.7 µM
Cc1cnc(NC(=O)C(Cc2ccccc2)NC(=O)c2ccccc2)s1 (centres undefined)	3.83 µM	23.8 µM
CCOC(=O)COc1cccc2c1C(=O)CCO2		> 100 µM
CSc1ccc(/C=C2\CN(C)C/C(=C\c3ccc(SC)cc3)C2=O)cc1		34.5 µM
O=[N+]([O-])c1cnc(Sc2ccncn2)s1	8.99 µM	26.4 µM
COC(=O)[C@@]12C3=NO[C@]1(C(=O)OC)C(O[Si](C)(C)C(C)(C)C)[C@H]1OC(C)(C)O[C@H]1[C@@H]2C(OCc1ccccc1)CC3 (some centres undefined)		> 100 µM
O=C(O)c1cc(C(=O)O)cc(N2C(=O)c3ccccc3C2=O)c1		> 100 µM
COc1c2ccoc2c(/C=C/C=O)c2oc(-c3ccccc3)cc(=O)c12	2.44 µM	8.08 µM
CN(CC(=O)O)S(=O)(=O)c1ccc2ccccc2c1		> 100 µM
CCN(CC)CC(C(=O)Nc1c(C)cccc1C)/C(C)=N\NC(=O)C[N+](C)(C)C (centres undefined)		> 100 µM
CC1=C(C(=O)Nc2ccccc2C)C(c2ccco2)C(C(=O)Nc2ccccc2C)=C(C)N1C		> 100 µM
CC(=O)OC(C)C(=O)C1c2cccc(O)c2C(=O)c2c(O)cc(C)cc21 (centres undefined)		1.15 µM

Structure (SMILES)	GI50	TGI
O=[S@@]1Nc2ccc(Br)cc2S1		> 100 µM
COc1ccc2c(c1)C1(C=N2)CCN(C(C)=O)CC1		> 100 µM
O=C1NC2(CCCCC2)C2CCCCC(O)C12 (centres undefined)		> 100 µM
COc1ccc(-n2/c(=N/C(=S)N(C)C)ss/c2=N\C(=S)N(C)C)cc1		> 100 µM
CC1=C(C(=O)Nc2ccc(F)c(Cl)c2)C(c2ccc(Cl)cc2)NC(=O)N1 (centres undefined)	17.4 µM	33.8 µM
Oc1ccc(Cl)cc1-c1cc(-c2ccccc2Cl)[nH]n1	4.91 µM	> 100 µM
CCOC(=O)C(Sc1ccccc1)c1c(OC)cc(=O)oc1/C=[N+](/[O-])c1ccc(N(C)C)cc1 (centres undefined)		78.5 µM
CNC(=O)c1cc(Oc2ccc3nc(NC(=O)Nc4ccc(Cl)c(C(F)(F)F)c4)sc3c2)ccn1	2.48 µM	8.17 µM
O=C(O)C(Cc1ccccc1)N1C(=O)N/C(=C\c2ccc(F)cc2)C1=O (centres undefined)		> 100 µM
COc1ccccc1NC(=O)CC(=O)n1nc(C)c(N=Nc2ccccc2C(=O)O)c1C		> 100 µM
CC(=O)N1[C@H](C(=O)O)CS[C@H]1c1ccncc1		> 100 µM
CC(=O)OC1COC(n2c(=S)n(-c3ccc(C)cc3)c(=O)c3ccccc32)C(OC(C)=O)C1OC(C)=O (centres undefined)		> 100 µM
COc1cccc(NC(=O)CC(=O)n2nc(C)c(N=Nc3ccccc3)c2C)c1		> 100 µM
CSc1ccccc1C#C/C=C\C#Cc1ccccc1N1CCCC1=O	> 12.7 µM	> 50 µM
O=C(O)CCSC(=O)Nc1cccc(F)c1		> 100 µM
O=C(CCl)N1c2ccccc2Oc2ccc3ccccc3c21	1.31 µM	3.08 µM
CCNC1C2(CCCCC2)NC(=O)C12CCCCC2 (centres undefined)		> 100 µM

Test system: SK-MEL-28 melanoma
Assay: NCI anticancer screen, dose series, 48 h

Structure (SMILES)	GI50	TGI
NC(CSC(c1ccccc1)(c1ccccc1)c1ccc2c(c1)OCO2)C(=O)O (centres undefined)	0.799 µM	98.5 µM
C=CCc1cc(OC)c2c(c1)C(O)CC(c1ccc(OC)c(OC)c1)O2 (centres undefined)		> 100 µM
O=C(NCCNc1nccc(-c2c(-c3cccc(O)c3)nc3sccn23)n1)c1ccccc1O	0.43 µM	33.3 µM
CCCCCCCC(=O)SCC/C=C/[C@@H]1CC(=O)NCc2cccc(n2)C2=N[C@@](C)(CS2)C(=O)N[C@@H](C(C)C)C(=O)N1	1.02 µM	> 33.3 µM
C[C@@H](CS(C)(=O)=O)Nc1ncc2cc(Oc3ccc(F)cc3F)c(=O)n(C)c2n1	> 25 µM	> 25 µM
CC(C)=CCCc1c(C)ccc2c1C(=O)C(=O)C(C(C)C)=C2		6.92 µM
COC(=O)[C@@H](C)C[C@H](Cc1ccc(F)cc1)NC(=O)c1csc([C@@H](C[C@H](C(C)C)N(C)C(=O)[C@@H](NC(=O)[C@H]2CCCCN2C)C(C)C)OC(C)=O)n1	> 16.7 µM	> 16.7 µM
Cc1cnc(NC(=O)C(Cc2ccccc2)NC(=O)c2ccccc2)s1 (centres undefined)	19.8 µM	49.9 µM
CCOC(=O)COc1cccc2c1C(=O)CCO2		> 100 µM
